Reference: a melting point compilation (Tetko et al.; mined from patent text by program, amines drawn as free bases though some values may be those of a salt)

melting point	Compound
> 300 °C	Cc1cc2nc(C=Cc3ccc(C(=O)O)cc3)oc2cc1C
93 to 96 °C	O=C1NC(=O)C(c2cccc(C(F)(F)F)c2)O1 (stereo not given)
78 to 87 °C	CCC(CC)C(=C(C#N)c1nc[nH]n1)S(=O)(=O)c1ccc(C)cc1
190 to 192 °C	CC(=O)c1cnn(-c2ccnc3cc(Cl)ccc23)c1
139 to 141 °C	Oc1ccc(-c2nc3cc(O)cc(Br)c3o2)cc1
193 to 195 °C	CC(O)c1cccc(-c2ccc3nc(-c4ccc(Cl)cc4)cn3c2)c1F (stereo not given)
155 to 157 °C	COc1cc(CNC(=O)c2nc3cnn(CCCc4ccccc4)c3c(=O)[nH]2)ccc1F
166 to 167 °C	C[C@H]1c2cc(F)ccc2-c2ccccc2N1S(=O)(=O)c1ccc(OS(N)(=O)=O)cc1
58 to 60 °C	COc1cc(C(=O)N2CCC(CCN3CCC(C(=O)c4nc5ccccc5n4Cc4ccc(F)cc4)CC3)(c3ccc(F)cc3F)C2)cc(OC)c1OC (stereo not given)
183 to 185 °C	COc1ccc(OS(=O)(=O)c2ccc(N3CCN(C)C3=O)cc2)cc1
47 to 49 °C	CCOC(=O)[C@H](Cc1ccc(OS(=O)(=O)C(F)(F)F)cc1)NC(=O)OC(C)(C)C
201 to 202 °C	CCOC(=O)c1cn(-c2nonc2C)c2c(F)c(F)c(F)cc2c1=O
238 to 240 °C	O=C(Nc1ccc2cc(CN3CCCC3)ccc2c1)c1ccc(-c2ccc(F)cc2)nc1
171 to 178 °C	Cc1nc2cc(S(=O)(=O)n3c(CCCC(=O)O)cc4cc(C(F)(F)F)ccc43)ccc2s1
193 to 194 °C	CS(=O)(=O)c1ccc2c([N+](=O)[O-])cc3c(c2c1)C(CCl)CN3 (stereo not given)
169 to 170 °C	Cc1noc2cc(OCCCNCC3CCc4ccc(O)cc4O3)ccc12 (stereo not given)
211 to 213 °C	CCc1c(C(=O)c2cc(C)cc(C)c2)n(CCC2=CCCC2)c(=O)[nH]c1=O
145 to 147 °C	CCOC(=O)Cc1c(C(=O)OCC)c(O)c(C(=O)c2ccc(Cl)cc2)n1C
118 to 120 °C	O=C(O)CCCCc1ccc(CCNS(=O)(=O)c2ccc(Cl)cc2)cc1
114 to 116 °C	Cc1nc2c(c(-c3ccccc3)n1)CCN(c1ccnc([C@@H](C)O)n1)C2
245 to 248 °C	CCCS(=O)(=O)Nc1cccc(C)c1C(N)c1cccn2c(C)c(C)nc12 (stereo not given)

melting point	Compound
210 to 215 °C	Cc1cc(NCc2ccc3oc(-c4ccccc4C#N)c(Br)c3c2)n2nccc2n1
110 to 112 °C	COc1cc(C(=O)c2c[nH]c(-c3cn(S(=O)(=O)c4ccccc4)c4ccccc34)n2)cc(OC)c1OC
115 °C	CC(=O)OCc1cc(=O)c(Oc2ccc(Cl)cc2)c(-c2ccc(S(C)(=O)=O)cc2)o1
186 to 190 °C	Nc1nnc(-c2ccc(C(F)(F)F)cc2)cc1C(F)(F)F
95 to 96 °C	CCOP(=O)(/C=C/c1cn(-c2ccccc2)nc1OCc1ccc(OCc2nc(N3CCCCC3)sc2C)c(OC)c1)OCC
190 to 192 °C	CNC(=O)COc1cc(-n2c(=O)cc(C(F)(F)F)n(C)c2=O)c(F)cc1Cl
152 to 154 °C	CCCCCS(=O)(=O)NC(=O)CCc1cc(C2CC2)nn1Cc1ccc(C(F)(F)F)cc1Cl
198 to 199 °C	N#Cc1ccc2[nH]cc(CCCCN3CCN(c4ccc5oc(C(=O)NO)cc5c4)CC3)c2c1
112 to 113 °C	COc1cccc(CCSc2c(O)cc(-c3ccccc3)oc2=O)c1
99 to 100 °C	CCC1(C)CC(=O)C(C(=O)Nc2ccc(C(F)(F)F)cc2)C(=O)C1 (stereo not given)
128 to 130 °C	COc1ccc2c(c1)CCC(=COC(=O)c1ccccc1)C2=O
> 250 °C	O=C1NC(=O)C(=Cc2ccc(C(=O)CCc3ccccc3)cn2)S1
207 to 209 °C	CCc1c2c(nn1-c1ccccc1)c(Cl)nc1ccccc12
251 to 252 °C	NS(=O)(=O)c1ccc(-c2oc3c(Cl)ccc(O)c3c(=O)c2-c2ccc(F)cc2)cc1
145 °C	O=C(O)CS(=O)(=O)CC(F)(F)F
198 °C	COC(=O)c1ccc(-c2nc(NCc3ccc4c(c3)OCO4)c3c4c(sc3n2)CCCC4)cc1
212 °C	CCOC(=O)c1cnc2c3ccc(OC)cc3ccn2c1=O
128 to 129 °C	CC(=O)c1ccc(S(=O)(=O)NCCN2CCOCC2)cc1
117 to 118 °C	COC(=O)Cc1ccc(C(=O)c2ccc(C)cc2)n1C
175 °C	CCOC(=O)c1ccc2nc3cscc3c(=O)n2c1

The remaining lines, values behind:

Compound	melting point
CCOC1=NC(N)=C(C(=O)OC)C(c2cccc([N+](=O)[O-])c2)C1C(=O)OC (stereo not given)	163 °C
NNC(=O)c1ccc(OCc2ccccc2)cn1	140 to 142 °C
CCOC(=O)c1[nH]c(CC)c(C)c1CC(C)C	53 to 55 °C
CCCCCCCCCCCCCCCCCC(=O)OC(CO)CO	73 to 75 °C
COc1cccc(CN2CCC(N3C(=O)Nc4ccccc4C3c3cccc(O)c3)CC2)c1 (stereo not given)	> 250 °C
CCOC(=O)C=C(Nc1ccc(O)c(=O)cc1)C(=O)OCC	108 °C
C/C(C=O)=C\COc1cccc2ccccc12	81.5 to 82.5 °C
CC1(C)CC(N2C(=O)C=CC2=O)CC(C)(C)N1OC1CCCCC1	135 to 139 °C
CNC(=O)c1ccc(C2=NOC(c3cc(Cl)cc(Cl)c3)(C(F)(F)F)C2)cc1C (stereo not given)	184 to 185 °C
CN(C)CCCOc1ccc(-c2nnc(-c3ccc(-c4ccccc4)cc3)o2)cc1	130 to 132 °C
Nc1cnc(NCC2CCCCC2)nc1O	180 °C
CC1CCN(c2c(C#N)c3c(c4c2CCc2ccccc2-4)-c2ccccc2C3)CC1	152 to 154 °C
CNCC[C@H]1CC[C@H](C(=O)O)CC1	212 to 214 °C
CC[C@@H](C)[C@H](N)C(O)(c1ccccc1)c1ccccc1	128 to 129 °C
CCC(=O)N1CCC[C@H]1C(=O)O	98 to 99 °C
COc1cc(Cl)ccc1NC(=O)C(C)(C)C	66 to 69 °C
O=C(NC(=S)NC1Cc2ccccc2C1)c1ccccc1	130 to 135 °C
O=C(O)CSC1CCCc2cc3c(cc21)OCO3 (stereo not given)	138 to 139 °C
CCOCCn1c(N2CCN(CC)CC2)nc2ccccc21	134 to 136 °C
CC(=O)OC(C)(N=NC(C)(OC(C)=O)C(C)C)C(C)C (stereo not given)	55 to 62 °C

Compound	melting point
C=CS(=O)(=O)c1ccc(/C(=C\C2CCCCC2)C(=O)OC)cc1Cl	105 to 108 °C
O=C1CCC(N2C(=O)c3cccc(CNC(=O)c4cc(Cl)cnc4Cl)c3C2=O)C(=O)N1 (stereo not given)	> 260 °C
CCOc1ccc2c(c1)C(N)(c1ccccc1Cl)C(=O)N2Cc1ccc(C(=O)NC(C)(C)CN(CC)CC)cc1 (stereo not given)	59 °C
CC1=C(C(=O)O)C(c2ccccc2[N+](=O)[O-])C(C(=O)O)=C(C)N1	120 to 122 °C
CC(=O)c1nn(C)c2ccccc12	86 to 88 °C
CC(=O)Nc1cccc(-c2ccc(C#N)c(=O)[nH]2)c1	326 to 328 °C
Fc1cccc(Nc2nc(Cl)nc3nc[nH]c23)c1	> 250 °C
Cc1ccc([N+](=O)[O-])c2c1CCCC2=O	104 to 107 °C
c1ccc(Oc2ccc(C3(Cn4cncn4)OCCO3)cc2)cc1	100 to 102 °C
CC(=O)NCCc1nc(-c2csc(N=C(N)N)n2)cs1	226 to 227 °C
O=C1C=c2c(c3[nH]c4c(c3c3c2=CN=C3)CCCC4)C1	> 300 °C
N#Cc1c[nH]c2cccc(OCC3CO3)c12 (stereo not given)	116 to 120 °C
NC(=S)NN=CC=Cc1ccccc1	137 to 139 °C
CCc1ccc2c(O)c(-c3nnnn3C)cnc2c1	270 to 273 °C
CON1C(=O)CC12C=CC(=O)C=C2	107 to 109 °C
O=c1c2c(nc3c(OCc4ccccc4)cccn13)CCC2	150 to 152 °C
COc1ccc(C2=NN(Cn3nnc4ccccc43)C(=O)[C@H]3CCCC[C@@H]23)cc1OC (relative stereo)	173 to 178 °C
CC(C)(C)c1cc(-c2nnc(NC(N)=S)s2)cc(C(C)(C)C)c1O	> 80 °C
Cc1cccc(C(=O)NN(C(=O)c2ccccc2)C(C)(C)C)c1	111 to 114 °C
COc1cc2c(Nc3ccc(Sc4nccn4C)c(Cl)c3)c(C#N)cnc2cc1OCCCCl	271 to 276 °C

Compound	melting point
CCCCC(O)CN1N=CCCC1c1ccc(Cl)c(Cl)c1 (stereo not given)	80 to 81 °C
COc1ccc(CC(C(=O)O)N(CCCNC(=O)OC(C)(C)C)C(=O)CBr)cc1 (stereo not given)	79 to 81 °C
CCCCCCCOc1ccc(N=Nc2ccc([N+](=O)[O-])cc2)cc1	82.3 to 83.2 °C
CCOC(=O)c1cn(C(C)(C)C)c2nc(N3CC4CCC(C3)N4C(=O)C(F)(F)F)c(F)cc2c1=O	205 °C
O=C(NC1CCC(CCN2CCN(c3nccc4c3OCC4)CC2)CC1)C(O)C(F)(F)F (racemic)	185 °C
CNc1ccc(C(=O)N(CCN2CCC(C(=O)c3ccc(F)cc3)CC2)c2cccnc2)cc1	90 to 96 °C
COc1ccc(NC(=O)/C=C/c2ccc(C(C)(C)C)cc2)cc1OC	115 to 116 °C
O=C(c1ccccc1)c1ccc2n1CCCCC2C(=O)O (stereo not given)	163 to 165 °C
O=C(N[C@@H](CCCCNSc1ncccc1[N+](=O)[O-])C(=O)N[C@H](CCC(=O)N1c2ccccc2C[C@H]1C(=O)O)C(=O)O)OCc1ccc2c(c1)OCO2	100 to 110 °C
CC(C)(C)OC(=O)NC1CCCCCC=CC2CC2(C(=O)NS(=O)(=O)C2CC2)NC(=O)C2CC(OC(=O)c3ccccn3)CN2C1=O (stereo not given)	164 to 166 °C
COc1cc([N+](=O)[O-])c(N)cc1C(=O)N1CCCC1	159 to 162 °C
CON=c1cc(C)c2ccccc2[nH]c1=O	190 to 193 °C
CCCCOC(=O)NCC(=O)NCC1C2CCC(O2)C1CC=CCCCC(=O)O (stereo not given)	104 to 106 °C
CON(C)Cc1nc2c(N)nc3ccccc3c2n1CC(C)(C)O	220 to 222 °C
Clc1cccc(-c2nc3ccccn3c2-c2ccnc(-c3ccc(OCCN4CCCC4)cc3)c2)c1	298 °C
Nc1c(C(=O)c2cccnc2)[nH]c2cc(Cl)ccc12	188 to 189 °C
O=c1n(CCCCN2CCN(c3cccc(Cl)c3)CC2)nc2ccccn12	122 to 123 °C
COC12CC(C)(c3nc(-c4cncc(Br)c4)no3)CN(C)C1Cc1c(Br)n(C)c3cccc2c13 (stereo not given)	167 to 172 °C
Cc1nc(C(=O)NS(=O)(=O)c2c(C)csc2C(=O)OC(C)C)no1	142 °C
